Results published in BindingDB's records for doi:10.1016/j.bmcl.2009.03.043 (Vertex Pharmaceuticals, 2009).
pKi: −log10 of the molar value.

Experiments:
[1] = molecular target: Tyrosine-protein kinase SYK (Homo sapiens) (UniProt P43405); assay: Inhibition of SYK
[2] = molecular target: 3-phosphoinositide-dependent protein kinase 1 (Homo sapiens) (UniProt O15530); assay: Inhibition of PDK1
[3] = molecular target: Mitogen-activated protein kinase 10 (Homo sapiens, UniProt P53779); assay: Inhibition of JNK3 by spectrophotometric coupled enzyme assay
Chain of Mitogen-activated protein kinase 10 (P53779 whole entry): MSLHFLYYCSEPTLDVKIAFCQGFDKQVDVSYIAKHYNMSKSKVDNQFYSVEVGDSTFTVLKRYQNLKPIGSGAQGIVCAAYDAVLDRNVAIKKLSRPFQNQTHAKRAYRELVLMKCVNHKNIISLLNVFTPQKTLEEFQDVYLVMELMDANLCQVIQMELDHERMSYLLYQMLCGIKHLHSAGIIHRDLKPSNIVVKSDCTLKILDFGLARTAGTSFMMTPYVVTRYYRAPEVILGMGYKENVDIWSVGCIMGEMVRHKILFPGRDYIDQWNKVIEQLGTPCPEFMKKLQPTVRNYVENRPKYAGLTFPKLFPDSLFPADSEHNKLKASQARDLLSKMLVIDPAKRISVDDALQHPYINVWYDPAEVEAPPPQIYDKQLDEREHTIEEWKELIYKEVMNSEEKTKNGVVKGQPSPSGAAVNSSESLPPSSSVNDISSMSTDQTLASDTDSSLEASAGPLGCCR

Row | SMILES | pKi [1] | pKi [2] | pKi [3]
1 | Cc1ccc2c(c1)N(Cc1cc(F)cc3c1OCOC3)C(=O)C2N=O (configuration not stated) [1-((6-fluoro-4H-benzo[d][1,3]dioxin-8-yl)methyl)-3-(hydroxyimino)-6-methylindolin-2-one] | < 4.52 | < 4.52 | –
2 | Cc1ccc2c(c1)C(N=O)C(=O)N2Cc1ccccc1 (configuration not stated) [1-benzyl-3-(hydroxyimino)-5-methylindolin-2-one] | – | – | < 5.00
3 | O=NC1C(=O)N(Cc2ccccc2)c2ccccc21 (configuration not stated) [1-benzyl-3-(hydroxyimino)indolin-2-one] | – | – | < 5.00
4 | O=NC1C(=O)N(Cc2ccccc2)c2ccc(F)cc21 (configuration not stated) [1-benzyl-5-fluoro-3-(hydroxyimino)indolin-2-one] | – | – | < 5.00
5 | O=NC1C(=O)N(Cc2ccccc2[N+](=O)[O-])c2ccccc21 (configuration not stated) [3-(hydroxyimino)-1-(2-nitrobenzyl)indolin-2-one] | – | – | < 5.00
6 | Cc1cccc(CN2C(=O)C(N=O)c3cc(C)ccc32)c1 (configuration not stated) [3-(hydroxyimino)-5-methyl-1-(3-methylbenzyl)indolin-2-one] | – | – | < 5.00
